Source: PMC8068801, “Novel Benzenesulfonate Scaffolds with a High Anticancer Activity and G2/M Cell Cycle Arrest” (Cancers, 2021)
Where two headings read alike, the source gives them in different places.

Experiments:
[1] = system: HCT 116 p53^−/− cells; experiment: MTS cytotoxicity assay, HCT 116 p53-/-; assay type: cell-based, human; conditions: for IC50: Homo sapiens, HCT 116 p53^−/−, 72 h incubation, MTS; for Selectivity index, HCT 116 p53 −/−: NHDF vs HCT 116 p53 −/−
From the text: (§1) M. Rusin from the Maria Sklodowska-Curie Memorial Cancer Centre and Institute of Oncology in Gliwice, Poland. […] G. Kramer-Marek from the Institute of Cancer Research in London, United Kingdom. The human suspension chronic myelogenous leukemia cell line K562 and pancreas ductal adenocarcinoma cell line PANC-1 were purchased from Sigma-Aldrich (St. Louis, MO, USA), while the normal human dermal fibroblasts cell line NHDF were purchased from PromoCell. […] Each medium contained a combination of two antibiotics: penicillin and streptomycin (1% v/v; Gibco). All of these cell lines were grown under standard conditions at 37 °C with a 5% CO2 humidified atmosphere. Moreover, all of the cell lines were routinely tested for mycoplasma using the PCR technique with specific Mycoplasma primers to confirm that there was no contamination.
(§2) The assay was performed following a 72 h incubation with the various concentrations of the tested compounds. Then, 100 µL DMEM without phenol red with 20 µL of the CellTiter 96®AQueous One Solution-MTS (Promega, Promega, WI, USA) was added to each well and incubated for 1 h or 3 h (PANC-1) at 37 °C. The optical densities of the samples were measured at 490 nm using a multi-plate reader (Synergy 4, BioTek, Winooski, VT, USA). […] Each individual compound was tested in triplicate in a single experiment with each experiment being performed three or four times.

[2] = system: K562 cells; experiment: MTS cytotoxicity assay, K562; assay type: cell-based, human; conditions: for IC50: Homo sapiens, K562, 72 h incubation, MTS; for Selectivity index, K562: normal fibroblasts NHDF vs K562
From the text: as §1, §2

[3] = system: MCF-7 cells; experiment: MTS cytotoxicity assay, MCF-7; assay type: cell-based, human; conditions: for IC50: Homo sapiens, MCF7, MCF-7, 72 h incubation, MTS; for Selectivity index, MCF-7: NHDF vs MCF-7
From the text: as §1, §2

[4] = system: HCT 116 p53^+/+ cells; experiment: MTS cytotoxicity assay, HCT 116 p53+/+; assay type: cell-based, human; conditions: for IC50: Homo sapiens, HCT 116 p53^+/+, 72 h incubation, MTS
From the text: as §1, §2

[5] = system: A549 cells; experiment: MTS cytotoxicity assay, A549; assay type: cell-based, human; conditions: for IC50: A549, 72 h incubation, MTS; for Selectivity index, A549: NHDF vs A549
From the text: as §1, §2

[6] = system: U-251 cells; experiment: MTS cytotoxicity assay, U-251; assay type: cell-based, human; conditions: for IC50: Homo sapiens, U-251, 72 h incubation, MTS
From the text: as §1, §2

[7] = system: NHDF cells; experiment: MTS cytotoxicity assay, normal fibroblasts NHDF; assay type: cell-based; conditions: NHDF normal human fibroblasts, 72 h incubation
From the text: as §1, §2

[8] = system: PANC-1 cells; experiment: MTS cytotoxicity assay, PANC-1; assay type: cell-based, human; conditions: for IC50: Homo sapiens, PANC-1, 72 h incubation, MTS
From the text: as §1, §2

[9] = biological target: T1, BRK (Homo sapiens, UniProt Q13882); experiment: Tyrosine kinase assay (Kinase Selectivity TK-2, ADP-Glo); assay type: biochemical; conditions: read-out: Inhibitory Effect of the Tyrosine Kinase Activity, BRK
T1 construct: purchased Promega
T1 sequence (Q13882 whole entry): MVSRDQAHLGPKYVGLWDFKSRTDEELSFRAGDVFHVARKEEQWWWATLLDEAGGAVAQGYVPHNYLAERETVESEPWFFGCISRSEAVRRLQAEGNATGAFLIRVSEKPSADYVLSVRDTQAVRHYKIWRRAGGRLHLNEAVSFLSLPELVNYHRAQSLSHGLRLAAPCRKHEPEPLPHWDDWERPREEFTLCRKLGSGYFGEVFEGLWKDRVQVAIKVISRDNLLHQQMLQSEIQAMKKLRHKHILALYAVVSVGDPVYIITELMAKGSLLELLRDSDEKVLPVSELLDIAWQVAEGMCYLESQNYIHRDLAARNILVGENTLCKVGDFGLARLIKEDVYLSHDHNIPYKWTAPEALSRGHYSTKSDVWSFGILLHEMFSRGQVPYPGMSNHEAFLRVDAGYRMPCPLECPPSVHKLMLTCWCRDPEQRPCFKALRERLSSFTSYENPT
Experimental: (§3) Assays using the Kinase Selectivity TK-2 profiling systems and ADP-Glo Kinase Assay (both from Promega) were performed to determine the inhibition of the non-receptor tyrosine kinases. The protocol was previously designed and described by our group in reports. The experiments were performed at least four times. The data are expressed as the percentage of the inhibition activity of tyrosine kinase after treatment with the tested derivatives.

[10] = biological target: T2, Fyn A (Homo sapiens, UniProt P06241); experiment: as above; assay type: biochemical; conditions: read-out: Inhibitory Effect of the Tyrosine Kinase Activity, Fyn A
T2 construct: purchased Promega
T2 sequence (P06241 whole entry): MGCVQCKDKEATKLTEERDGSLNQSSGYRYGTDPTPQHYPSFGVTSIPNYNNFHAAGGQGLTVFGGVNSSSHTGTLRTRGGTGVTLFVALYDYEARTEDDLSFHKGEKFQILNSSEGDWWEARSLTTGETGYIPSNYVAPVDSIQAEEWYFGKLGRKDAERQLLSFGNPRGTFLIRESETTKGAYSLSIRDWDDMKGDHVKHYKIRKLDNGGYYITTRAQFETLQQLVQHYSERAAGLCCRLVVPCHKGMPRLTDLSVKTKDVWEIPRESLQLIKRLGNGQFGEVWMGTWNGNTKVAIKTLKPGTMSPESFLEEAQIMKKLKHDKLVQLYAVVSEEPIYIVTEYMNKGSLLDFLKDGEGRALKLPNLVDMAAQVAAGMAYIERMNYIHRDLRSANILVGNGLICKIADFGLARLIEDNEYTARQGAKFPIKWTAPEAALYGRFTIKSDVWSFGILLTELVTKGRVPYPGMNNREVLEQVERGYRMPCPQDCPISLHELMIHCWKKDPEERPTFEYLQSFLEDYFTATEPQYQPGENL
Experimental: as §3

[11] = biological target: T3, ABL1 (Homo sapiens, UniProt P00519); experiment: as above; assay type: biochemical; conditions: read-out: Inhibitory Effect of the Tyrosine Kinase Activity, ABL1
T3 construct: purchased Promega
T3 sequence (P00519 whole entry): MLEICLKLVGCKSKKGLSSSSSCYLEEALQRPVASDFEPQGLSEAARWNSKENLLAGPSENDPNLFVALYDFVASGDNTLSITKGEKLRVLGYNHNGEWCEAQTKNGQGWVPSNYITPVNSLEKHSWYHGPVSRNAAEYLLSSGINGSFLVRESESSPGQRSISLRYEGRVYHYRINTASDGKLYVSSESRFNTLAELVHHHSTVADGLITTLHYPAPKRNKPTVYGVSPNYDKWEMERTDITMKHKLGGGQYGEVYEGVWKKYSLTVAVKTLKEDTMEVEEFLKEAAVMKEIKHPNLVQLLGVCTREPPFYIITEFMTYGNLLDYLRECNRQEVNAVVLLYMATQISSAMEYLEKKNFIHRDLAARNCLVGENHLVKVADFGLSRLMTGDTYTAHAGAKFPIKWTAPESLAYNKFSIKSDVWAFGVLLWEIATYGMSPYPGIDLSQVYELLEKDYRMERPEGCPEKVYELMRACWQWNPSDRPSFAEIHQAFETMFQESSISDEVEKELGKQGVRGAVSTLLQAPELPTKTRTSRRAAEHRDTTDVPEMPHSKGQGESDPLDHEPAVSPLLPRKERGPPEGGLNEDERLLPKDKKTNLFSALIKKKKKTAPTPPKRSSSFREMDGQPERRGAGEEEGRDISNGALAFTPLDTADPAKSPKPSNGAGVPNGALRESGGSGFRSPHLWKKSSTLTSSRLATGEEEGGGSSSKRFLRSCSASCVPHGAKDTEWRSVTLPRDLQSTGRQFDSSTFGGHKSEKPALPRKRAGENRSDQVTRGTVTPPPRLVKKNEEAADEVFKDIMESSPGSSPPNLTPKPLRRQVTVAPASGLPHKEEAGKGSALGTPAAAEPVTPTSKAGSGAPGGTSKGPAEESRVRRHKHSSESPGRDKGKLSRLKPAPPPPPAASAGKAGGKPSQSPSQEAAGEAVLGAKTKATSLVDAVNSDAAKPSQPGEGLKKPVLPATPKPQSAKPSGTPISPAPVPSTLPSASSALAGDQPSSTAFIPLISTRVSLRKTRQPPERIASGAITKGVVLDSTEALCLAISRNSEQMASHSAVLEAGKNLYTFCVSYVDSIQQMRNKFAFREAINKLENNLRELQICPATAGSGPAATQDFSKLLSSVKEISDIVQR
Experimental: as §3

[12] = biological target: T4, Lck (Homo sapiens, UniProt P06239); experiment: as above; assay type: biochemical; conditions: read-out: Inhibitory Effect of the Tyrosine Kinase Activity, Lck
T4 construct: purchased Promega
T4 sequence (P06239 whole entry): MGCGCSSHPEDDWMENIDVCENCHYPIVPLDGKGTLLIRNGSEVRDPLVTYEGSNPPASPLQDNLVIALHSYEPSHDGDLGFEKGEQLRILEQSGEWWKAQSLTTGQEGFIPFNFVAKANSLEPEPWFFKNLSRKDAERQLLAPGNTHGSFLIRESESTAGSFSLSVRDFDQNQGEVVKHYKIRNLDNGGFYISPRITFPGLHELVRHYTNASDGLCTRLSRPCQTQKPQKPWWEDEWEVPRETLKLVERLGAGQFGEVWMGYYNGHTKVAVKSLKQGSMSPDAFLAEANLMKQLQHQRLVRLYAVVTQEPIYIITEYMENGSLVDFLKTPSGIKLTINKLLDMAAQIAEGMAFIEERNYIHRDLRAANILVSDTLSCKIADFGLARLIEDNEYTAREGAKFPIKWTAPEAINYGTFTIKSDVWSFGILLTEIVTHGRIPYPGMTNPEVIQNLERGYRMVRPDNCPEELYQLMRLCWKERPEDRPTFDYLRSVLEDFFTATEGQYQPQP
Experimental: as §3

[13] = biological target: T5, BTK (Homo sapiens, UniProt Q06187); experiment: as above; assay type: biochemical; conditions: read-out: Inhibitory Effect of the Tyrosine Kinase Activity, BTK
T5 construct: purchased Promega
T5 sequence (Q06187 whole entry): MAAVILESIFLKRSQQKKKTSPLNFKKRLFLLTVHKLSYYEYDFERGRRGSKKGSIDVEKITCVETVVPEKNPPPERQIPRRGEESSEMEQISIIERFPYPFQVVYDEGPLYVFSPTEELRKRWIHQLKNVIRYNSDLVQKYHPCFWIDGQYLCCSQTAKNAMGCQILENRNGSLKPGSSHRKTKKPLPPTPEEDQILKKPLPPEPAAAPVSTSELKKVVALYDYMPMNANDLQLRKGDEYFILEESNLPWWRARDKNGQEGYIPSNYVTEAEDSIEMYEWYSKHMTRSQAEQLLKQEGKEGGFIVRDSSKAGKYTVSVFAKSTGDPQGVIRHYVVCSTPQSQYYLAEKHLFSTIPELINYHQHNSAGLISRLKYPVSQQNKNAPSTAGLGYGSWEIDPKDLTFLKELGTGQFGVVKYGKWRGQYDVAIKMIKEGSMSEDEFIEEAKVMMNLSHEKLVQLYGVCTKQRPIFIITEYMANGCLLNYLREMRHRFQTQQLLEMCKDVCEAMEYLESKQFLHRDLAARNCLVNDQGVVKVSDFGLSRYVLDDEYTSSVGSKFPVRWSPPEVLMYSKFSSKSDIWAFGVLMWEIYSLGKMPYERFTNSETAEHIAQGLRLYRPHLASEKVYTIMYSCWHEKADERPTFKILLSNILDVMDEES
Experimental: as §3

[14] = biological target: T6, Src (Homo sapiens, UniProt P12931); experiment: as above; assay type: biochemical; conditions: read-out: Inhibitory Effect of the Tyrosine Kinase Activity, Src
T6 construct: purchased Promega
T6 sequence (P12931 whole entry): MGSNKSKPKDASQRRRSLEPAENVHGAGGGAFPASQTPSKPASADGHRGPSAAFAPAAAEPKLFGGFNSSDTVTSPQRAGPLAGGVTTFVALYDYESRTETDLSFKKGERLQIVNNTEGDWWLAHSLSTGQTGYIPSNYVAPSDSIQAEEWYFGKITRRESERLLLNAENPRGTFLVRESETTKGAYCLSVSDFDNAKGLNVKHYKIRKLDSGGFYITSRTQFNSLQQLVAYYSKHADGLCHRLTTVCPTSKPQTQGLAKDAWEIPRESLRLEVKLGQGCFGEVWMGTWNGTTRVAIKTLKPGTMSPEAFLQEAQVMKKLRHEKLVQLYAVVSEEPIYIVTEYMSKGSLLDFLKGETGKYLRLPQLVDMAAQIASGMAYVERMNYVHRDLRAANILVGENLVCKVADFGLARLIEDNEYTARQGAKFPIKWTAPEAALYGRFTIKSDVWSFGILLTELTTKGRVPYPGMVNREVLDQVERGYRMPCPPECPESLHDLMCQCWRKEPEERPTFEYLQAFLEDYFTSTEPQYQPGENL
Experimental: as §3

[15] = biological target: T7, Lyn B (Homo sapiens, UniProt P07948); experiment: as above; assay type: biochemical; conditions: read-out: Inhibitory Effect of the Tyrosine Kinase Activity, Lyn B
T7 construct: purchased Promega
T7 sequence (P07948 1-491 isoform P07948-2): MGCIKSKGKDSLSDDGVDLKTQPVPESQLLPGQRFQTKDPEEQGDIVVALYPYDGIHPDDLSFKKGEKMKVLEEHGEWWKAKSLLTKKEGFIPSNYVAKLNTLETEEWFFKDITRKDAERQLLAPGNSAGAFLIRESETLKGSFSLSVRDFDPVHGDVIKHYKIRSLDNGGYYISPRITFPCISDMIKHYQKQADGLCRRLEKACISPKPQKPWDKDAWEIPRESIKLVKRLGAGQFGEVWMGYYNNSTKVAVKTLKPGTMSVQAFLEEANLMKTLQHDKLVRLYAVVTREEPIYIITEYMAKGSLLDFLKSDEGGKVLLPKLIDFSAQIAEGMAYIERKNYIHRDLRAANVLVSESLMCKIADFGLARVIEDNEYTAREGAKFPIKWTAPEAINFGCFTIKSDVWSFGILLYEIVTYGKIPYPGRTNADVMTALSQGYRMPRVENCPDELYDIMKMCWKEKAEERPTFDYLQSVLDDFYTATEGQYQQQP
Experimental: as §3

[16] = biological target: T8, CSK (Homo sapiens, UniProt P41240); experiment: as above; assay type: biochemical; conditions: read-out: Inhibitory Effect of the Tyrosine Kinase Activity, CSK
T8 construct: purchased Promega
Experimental: as §3

[17] = system: A549 cells; set-up: method as in PMID 24530495; conditions: cited from earlier work
[18] = system: U-251 cells; experiment: Cell cycle assay (Muse Cell-Cycle Kit), U-251; assay type: cell-based, human; conditions: U-251, 0.13 µM to 2 µM, 24 h; 32.3% in untreated cells
Experimental: The K562, U-251 and NHDF cells were seeded in 3 cm Petri dishes (Nunc) at a density of 250,000 cells per well and incubated under standard conditions at 37 °C for 24 h. […] After a 24 h treatment, the assays were performed using a Muse Cell-Cycle Kit (Millipore, Burlington, MA, USA) according to the supplier’s instructions. Briefly, the cells were collected, washed with cold PBS and centrifuged at 300 g for 5 min. Afterwards, the cells were fixed in ice cold 70% ethanol and stored at −20 °C overnight. The next day, the cells were washed with cold PBS, centrifuged and resuspended in 200 μL of the Muse™ Cell Cycle Reagent. The samples were incubated for 30 min at room temperature in the dark. After staining, the cellular subpopulation values in the individual cell cycle phases were estimated using a cell cycle analysis using a Muse Cell Analyzer (Millipore). The experiments were performed at least four times.

SMILES	inhibition at 0.5 µM [9] [%]	inhibition at 0.5 µM [10] [%]	inhibition at 0.5 µM [11] [%]	inhibition at 0.5 µM [12] [%]	inhibition at 0.5 µM [13] [%]	inhibition at 0.5 µM [14] [%]	inhibition at 0.5 µM [15] [%]	inhibition at 0.5 µM [16] [%]	IC50 [1] [µM]	Selectivity index, HCT 116 p53 −/− [1]	IC50 [2] [µM]	Selectivity index, K562 [2]	IC50 [3] [µM]	Selectivity index, MCF-7 [3]	IC50 [4] [µM]	IC50 ([5]; Homo sapiens, A549, 72 h) [µM]	Selectivity index, A549 [5]	IC50 [6] [µM]	IC50 [7] [µM]	IC50 [8] [µM]	further results
COc1ccc(/C=C/c2nc(NCCCN(C)C)c3ccccc3n2)cc1 [CP-31398, reference compound]	–	–	–	–	–	–	–	–	26.3 ± 1.41	–	3.09 ± 0.36	–	27 ± 2.1	–	18.6 ± 0.92	–	–	18.8 ± 1.65	12.3 ± 0.54	> 25	IC50 ([5]; Homo sapiens): > 25 µM
COc1c(NS(=O)(=O)c2ccc(C)cc2)cc(-c2ccc3ncnc(N4CCOCC4)c3c2)cc1C(N)=O [IV]	–	–	–	–	–	–	–	–	–	–	–	–	–	–	–	–	–	–	–	–	IC50 [17]: 2.18 µM
CC(=O)O[C@H]1C(=O)[C@@]2(C)[C@H]([C@H](OC(=O)c3ccccc3)[C@]3(O)C[C@H](OC(=O)[C@H](O)[C@@H](NC(=O)c4ccccc4)c4ccccc4)C(C)=C1C3(C)C)[C@]1(OC(C)=O)CO[C@@H]1C[C@@H]2O [paclitaxel, reference compound]	–	–	–	–	–	–	–	–	–	–	–	–	–	–	–	–	–	–	–	–	Fraction of cells in the G2/M phase [18]: about 69.9%

The next lines start with results.

inhibition at 0.5 µM [9] [%]	inhibition at 0.5 µM [10] [%]	inhibition at 0.5 µM [11] [%]	inhibition at 0.5 µM [12] [%]	inhibition at 0.5 µM [13] [%]	inhibition at 0.5 µM [14] [%]	inhibition at 0.5 µM [15] [%]	inhibition at 0.5 µM [16] [%]	SMILES	IC50 [1] [µM]	Selectivity index, HCT 116 p53 −/− [1]	IC50 [2] [µM]	Selectivity index, K562 [2]	IC50 [3] [µM]	Selectivity index, MCF-7 [3]	IC50 [4] [µM]	IC50 ([5]; Homo sapiens, A549, 72 h) [µM]	Selectivity index, A549 [5]	IC50 [6] [µM]	IC50 [7] [µM]	IC50 [8] [µM]	further results
26.5	34.1	0	42.6	30.7	2.73	0	0	COc1ccccc1/C=C/c1nc(OS(=O)(=O)c2ccc(C)cc2)c2ccc(Cl)cc2n1 [BS3, 7-chloro-2-((E)-2-(2-methoxyphenyl)ethenyl)quinazolin-4-yl 4-methylbenzenesulfonate]	0.239 ± 0.03	39.39	0.078 ± 0.027	120.71	4.6 ± 1.02	2.05	0.363 ± 0.028	7.65	1.23	1.76 ± 0.388	9.42 ± 1.65	0.097 ± 0.03	Selectivity index, HCT 116 p53+/+ ([4]; NHDF vs HCT 116 p53+/+): 25.94; IC50 [5]: 7.65 ± 0.987 µM; Selectivity index, U-251 ([6]; NHDF vs U-251): 5.36; Selectivity index, PANC-1 ([8]; NHDF vs PANC-1): 97.06
20.2	0	0	11.2	8.59	0	0	20.1	COc1ccc(/C=C/c2nc(OS(=O)(=O)c3ccc(C)cc3)c3ccccc3n2)cc1 [BS5, 2-((E)-2-(4-methoxyphenyl)ethenyl)quinazolin-4-yl 4-methylbenzenesulfonate]	> 25	–	10.2 ± 0.819	2.45	> 25	–	> 25	> 25	1.00	> 25	> 25	> 25	–
0	62.6	0	37.3	17.9	0	0	21.1	COc1ccc(/C=C/c2nc(OS(=O)(=O)c3ccc(C)cc3)c3ccccc3n2)c(OC)c1 [BS6, 2-((E)-2-(2,4-dimethoxyphenyl)ethenyl)quinazolin-4-yl 4-methylbenzenesulfonate]	21.7 ± 1.19	1.15	2.7 ± 0.519	9.26	9.79 ± 1.23	2.55	> 25	> 25	1.00	> 25	> 25	> 25	–
